Reference: patent US20160303081A1, “INHIBITORS OF BETA1-INTEGRIN AND METHODS OF USE” (The Texas A&M University System, priority 2015, published 2016)

Key:
SKBR3 cells = experiment: Migration/invasion of SKBR3 cells; type: cell-based, human; details: SKBR3 cells (FIGS. 16, 17)
Text: FIG. 16 illustrates that the NR4A1 antagonist DIM-C-pPhCO2ME inhibits migration/invasion of SKBR3 cells.
(§1) Assessing downstream effects of the above β1-integrin inhibition, knockdown of NR4A1 (TR3) by RNA interference decrease migration and invasion performance of SKBr3 and MDA-MB-231 cells (FIG. 14). […] Moreover, the effects of other NR4A1 antagonists on migration and invasion of the breast cancer cells were investigated.

MDA-MB-231 cells = experiment: Migration/invasion of MDA-MB-231 cells; type: cell-based, human; details: MDA-MB-231 cells (FIG. 15)
Text: FIG. 15 illustrates that the NR4A1 antagonist DIM-C-pPhCO2ME inhibits migration/invasion of MDA-MB-231 cells.
as §1

[1] = biological target: ligand binding domain (LBD) of NR4A1 (Homo sapiens, UniProt P22736); experiment: Fluorescence quenching binding assay with His-NR4A1 (LBD); details: His-tagged ligand binding domain of NR4A1
Sequence of ligand binding domain (LBD) of NR4A1 (P22736 360-595 limits assumed): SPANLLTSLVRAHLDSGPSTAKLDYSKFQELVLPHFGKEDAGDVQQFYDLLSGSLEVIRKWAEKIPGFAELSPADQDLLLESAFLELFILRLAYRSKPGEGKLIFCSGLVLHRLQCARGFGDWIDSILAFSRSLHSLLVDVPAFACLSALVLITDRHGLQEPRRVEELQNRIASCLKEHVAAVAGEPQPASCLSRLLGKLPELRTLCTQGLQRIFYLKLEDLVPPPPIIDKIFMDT
Text: (§2) These compounds bind the receptor and are receptor antagonists. Thus, C-DIMs are the first NR4A1 antagonists that inhibit NR4A1-mediated pro-oncogenic genes/pathways. The transactivation and NR4A1 binding of the p-hydroxyphenyl (DIM-C-pPhOH) analog was initially investigated.
Using a fluorescent binding assay, a library of C-DIM compounds were screened. Specifically, 14 different C-DIM analogs with pPhX on the bridging carbon (i.e., as R8) were screened, where X was CF3, Br, F, t-Butyl, OCH3, N-dimethylamino, H, OH, C6H5, CN, CH3, Cl, I and CO2Me. Each analog bound the ligand binding domain of NR4A1 and KD values for binding varied from 0.1-0.71 μM.

NR4A1 = biological target: T1, NR4A1 (Homo sapiens, UniProt P22736); experiment: GAL4-NR4A1 / UAS5-luc transactivation reporter assay in Panc1 cells; type: cell-based; details: Panc1 cells transfected with GAL4-NR4A1 (full length) and UAS5-luc reporter; FIG. 2A/2B
T1 construct: Panc1 cells were transfected with a GAL4-NR4A1 (full length) construct; expressed in transfected cells; host or cells: Panc1
T1 sequence (P22736 whole entry, the tested form may be a part): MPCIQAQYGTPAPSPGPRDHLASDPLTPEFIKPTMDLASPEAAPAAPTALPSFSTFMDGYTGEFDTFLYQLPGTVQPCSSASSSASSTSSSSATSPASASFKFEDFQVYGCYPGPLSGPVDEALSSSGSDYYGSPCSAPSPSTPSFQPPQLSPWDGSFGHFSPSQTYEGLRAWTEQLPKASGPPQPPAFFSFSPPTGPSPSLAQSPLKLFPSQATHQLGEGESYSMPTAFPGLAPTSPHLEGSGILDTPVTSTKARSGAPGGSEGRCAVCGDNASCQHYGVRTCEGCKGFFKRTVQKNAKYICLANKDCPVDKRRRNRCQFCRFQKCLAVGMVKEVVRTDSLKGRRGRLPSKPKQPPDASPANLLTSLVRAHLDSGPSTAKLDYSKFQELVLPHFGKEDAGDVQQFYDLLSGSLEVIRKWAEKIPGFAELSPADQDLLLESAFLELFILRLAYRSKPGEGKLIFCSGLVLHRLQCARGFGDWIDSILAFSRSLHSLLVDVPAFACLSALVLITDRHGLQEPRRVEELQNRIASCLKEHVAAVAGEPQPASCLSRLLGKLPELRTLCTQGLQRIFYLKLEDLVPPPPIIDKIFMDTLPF
Text: as §2

[2] = system: L3.6pL orthotopic xenograft; experiment: L3.6pL orthotopic xenograft in athymic nude mice, tumor lysates by Western blot; type: in vivo; details: 30 mg/kg/d, compared to corn oil control; lysate from two animals (FIG. 10)
Text: The tumor lysate from two animals is shown.

β1-integrin [3] = experiment: β1-integrin expression, RKO colon cancer cells; type: cell-based; details: RKO colon cancer cells (FIG. 13)
pancreatic cancer cells [4] = experiment: Boyden Chamber invasion assay, pancreatic cancer cells; type: cell-based; details: 20 μM, p<0.001 (FIGS. 4A, 4B)
Text: FIGS. 4A and 4B illustrate that DIM-C-pPhOH decreases pancreatic cancer cell invasion in a Boyden Chamber assay. Significant inhibition with p<0.001 indicated with “#”.
Previous studies indicate that in pancreatic cancers, NR4A1 regulates pro-survival genes (e.g. survivin) through an Sp1/p300/NR4A1 complex in which Sp1 binds promoter DNA. […] A third pathway involves activation of mTOR which is due to inactivation of p53 by binding NR4A1 and this pathway is only observed in cancer cell lines and tumors expressing wild-type p53.

β1-integrin [5] = experiment: Expression of β1-integrin and related gene products, pancreatic cancer cells; type: cell-based; details: 20 μM (FIG. 7)
Description: (§3) Discovery of NR4A1-regulated pro-invasion/migration genes was determined using Illumina Human HT-12V4 Beadchip arrays (FIGS. 5A and 5B). Knockdown of NR4A1 in Panc1 cells decreased expression of β1-integrin which is known to play an important role in cell migration and invasion. […] The loss of α5-integrin may be indirect since it was previously reported that β1-integrin silencing by RNAi decreased α5-integrin. […] Decreased adhesion to fibronectin-coated plates was also observed in pancreatic cancer cells treated with DIM-C-pPhOH (FIG. 9), confirming that siNR4A1 and NR4A1 antagonists decrease expression of β1-integrin. This represents a novel approach for targeting this pro-oncogenic factor in pancreatic cancer.

pancreatic cancer cells [6] = experiment: Adhesion to human fibronectin-coated plates, pancreatic cancer cells; type: cell-based; details: 20 μM, p<0.001 / p<0.005 (FIG. 9)
Description: Significant inhibition with p<0.001 indicated with “#” and significant inhibition with p<0.005 indicated with “***”.
as §3

[7] = system: L3.6pL orthotopic xenograft; details: athymic nude mice, orthotopic model; previous studies; cited from earlier work
β1-integrin [8] = experiment: β1-integrin expression, MCF-7 breast cancer cells; type: cell-based; details: MCF-7 cells
pancreatic cancer cells [9] = details: stated with previous studies; cited from earlier work
β1-integrin [10] = experiment: β1-integrin expression, SKBR3 breast cancer cells; type: cell-based, human; details: SKBR3 cells (FIGS. 11, 12)
β1-integrin [11] = experiment: β1-integrin expression, SW480 colon cancer cells; type: cell-based; details: SW480 colon cancer cells (FIG. 13)
β1-integrin [12] = experiment: β1-integrin expression, MDA-MB-231 breast cancer cells; type: cell-based, human; details: MDA-MB-231 cells (FIGS. 11, 12)

| binding to His-NR4A1 (LBD), fluorescence quenching [1] | luciferase activity (NR4A1-dependent transactivation) (NR4A1) | SMILES | migration and invasion (SKBR3 cells) | migration and invasion (MDA-MB-231 cells) | expression of α5-integrin in tumor lysates [2] | expression of β1-integrin in tumor lysates [2] | β1-integrin expression (β1-integrin [3]) | invasion (pancreatic cancer cells [4]) | β1-integrin and related gene products (β1-integrin [5]) | cell adhesion to human fibronectin-coated plates (pancreatic cancer cells [6]) | tumor growth [7] | β1-integrin expression (β1-integrin [8]) | apoptosis (pancreatic cancer cells [9]) | pancreatic cancer cell growth (pancreatic cancer cells [9]) | β1-integrin expression (β1-integrin [10]) | β1-integrin expression (β1-integrin [11]) | β1-integrin expression (β1-integrin [12]) |
| --- | --- | --- | --- | --- | --- | --- | --- | --- | --- | --- | --- | --- | --- | --- | --- | --- | --- |
| binds the LBD of NR4A1 | inhibits NR4A-dependent transactivation | COC(=O)c1ccc(C(c2c[nH]c3ccccc23)c2c[nH]c3ccccc23)cc1 [DIM-C-pPhCO2Me] | inhibits migration and invasion | inhibits migration and invasion |  |  |  |  |  |  |  |  |  |  |  |  |  |
| quenches fluorescence | decreased luciferase activity | Oc1ccc(C(c2c[nH]c3ccccc23)c2c[nH]c3ccccc23)cc1 [DIM-C-pPhOH, 1,1-bis(3′-indolyl)-1-(p-hydroxyphenyl)methane] |  |  | decreases expression | decreases expression | decreases β1-integrin expression | decreased invasion | decreases β1-integrin and related gene products | decreases pancreatic cancer cell adhesion | inhibits tumor growth | decreased β1-integrin expression | induce apoptosis | inhibit pancreatic cancer cell growth | decreased β1-integrin expression | decreases β1-integrin expression | decreased β1-integrin expression |
